Assays:
PDE9A [1] = target: T1, PDE9A (Homo sapiens, UniProt O76083); conditions: concentrations of up to 100 μM; cited from earlier work
PDE9A [2] = target: T1, PDE9A; assay: PDE9A inhibition (scintillation proximity assay); assay type: biochemical; parameters: made in house; host or cells: Sf9 insect cells, pFASTBAC baculovirus; conditions: recombinant PDE9A, Table 2; read-out: PDE9A-inhibiting effect IC50
Method: The test substances are dissolved in 100% DMSO and serially diluted to determine their in vitro effect on PDE 9A. […] 2 μL portions of the diluted substance solutions are introduced into the wells of microtiter plates (Isoplate; Wallac Inc., Atlanta, Ga.). Then 50 μL of a dilution of the PDE9A preparation described above are added. The dilution of the PDE9A preparation is chosen so that less than 70% of the substrate is converted during the subsequent incubation (typical dilution: 1:10 000; dilution buffer: 50 mM Tris/HCl pH 7.5, 8.3 mM MgCl2, 1.7 mM EDTA, 0.2% BSA). The substrate, [8-^3H] guanosine 3′,5′-cyclic phosphate (1 μCi/μL; Amersham Pharmacia Biotech., Piscataway, N.J.) is diluted 1:2000 with assay buffer (50 mM Tris/HCl pH 7.5, 8.3 mM MgCl2, 1.7 mM EDTA) to a concentration of 0.0005 μCi/μL. The enzyme reaction is finally started by adding 50 μL (0.025 μCi) of the diluted substrate. […] Immediately thereafter, 25 μL of a suspension containing 18 mg/mL Yttrium Scintillation Proximity Beads (Amersham Pharmacia Biotech., Piscataway, N.J.) are added. The microtiter plates are sealed with a film and left to stand at room temperature for 60 min. The plates are then measured for 30 s per well in a Microbeta scintillation counter (Wallac Inc., Atlanta, Ga.). IC50 values are determined from the graphical plot of the substance concentration versus the percentage inhibition.

PDE10A = target: T2, PDE10A (Homo sapiens, UniProt Q9Y233); assay: PDE10A inhibition; assay type: biochemical; conditions: human isoenzyme
T2 construct: made in house; host or cells: Sf9 insect cells, pFASTBAC baculovirus
Source text: (§1) Recombinant PDE1C (GenBank/EMBL Accession Number: NM_005020, Loughney et al. J. Biol. Chem. 1996 271, 796-806), PDE2A (GenBank/EMBL Accession Number: NM_002599, Rosman et al. Gene 1997 191, 89-95), PDE3B (GenBank/EMBL Accession Number: NM_000922, Miki et al. Genomics 1996, 36, 476-485), PDE4B (GenBank/EMBL Accession Number: NM_002600, Obernolte et al. Gene. 1993, 129, 239-247), PDE5A (GenBank/EMBL Accession Number: NM_001083, Loughney et al. Gene 1998, 216, 139-147), PDE7B (GenBank/EMBL Accession Number: NM_018945, Hetman et al. Proc. Natl. Acad. Sci. U.S.A. 2000, 97, 472-476), PDE8A (GenBank/EMBL Accession Number: AF—056490, Fisher et al. Biochem. Biophys. Res. Commun. […]
(§2) The test substances are dissolved in 100% DMSO and serially diluted to determine their in vitro effect on PDE 9A. […] The plates are then measured for 30 s per well in a Microbeta scintillation counter (Wallac Inc., Atlanta, Ga.). IC50 values are determined from the graphical plot of the substance concentration versus the percentage inhibition.
(§3) The in vitro effect of test substances on recombinant PDE3B, PDE4B, PDE7B, PDE8A, PDE10A and PDE11A is determined in accordance with the assay protocol described above for PDE 9A with the following adaptations: [5′,8-^3H] adenosine 3′,5′-cyclic phosphate (1 μCi/μL; Amersham Pharmacia Biotech., Piscataway, N.J.) is used as substrate. […]

PDE7A = target: T3, PDE7A (Homo sapiens, UniProt Q9NP56); assay: PDE7A inhibition; assay type: biochemical; conditions: human isoenzyme
T3 construct: made in house; host or cells: Sf9 insect cells, pFASTBAC baculovirus

PDE1C = target: T4, PDE1C (Homo sapiens, UniProt Q14123); assay: PDE1C inhibition; assay type: biochemical; conditions: human isoenzyme
T4 construct: made in house; host or cells: Sf9 insect cells, pFASTBAC baculovirus
Source text: as §1, §2, §3

PDE2A = target: T5, PDE2A (Homo sapiens, UniProt O00408); assay: PDE2A inhibition; assay type: biochemical; conditions: human isoenzyme
T5 construct: made in house; host or cells: Sf9 insect cells, pFASTBAC baculovirus
Source text: as §1, §2, §3

PDE4B = PDE4B (Homo sapiens, UniProt Q07343); assay: PDE4B inhibition; assay type: biochemical; conditions: human isoenzyme
Source text: as §1, §2, §3

PDE5A = target: T6, PDE5A (Homo sapiens, UniProt O76074); assay: PDE5A inhibition; assay type: biochemical; conditions: human isoenzyme
T6 construct: made in house; host or cells: Sf9 insect cells, pFASTBAC baculovirus
Source text: as §1, §2, §3

PDE8A = target: T7, PDE8A (Homo sapiens, UniProt O60658); assay: PDE8A inhibition; assay type: biochemical; conditions: human isoenzyme
T7 construct: made in house; host or cells: Sf9 insect cells, pFASTBAC baculovirus
Source text: as §1, §2, §3

PDE3B = target: T8, PDE3B (Homo sapiens, UniProt Q13370); assay: PDE3B inhibition; assay type: biochemical; conditions: human isoenzyme
T8 construct: made in house; host or cells: Sf9 insect cells, pFASTBAC baculovirus
Source text: as §1, §2, §3

Murine PDE9A = target: T9, Murine PDE9A (Mus musculus, UniProt O70628); conditions: concentrations below 200 μM; cited from earlier work
T9 sequence (O70628 1-534): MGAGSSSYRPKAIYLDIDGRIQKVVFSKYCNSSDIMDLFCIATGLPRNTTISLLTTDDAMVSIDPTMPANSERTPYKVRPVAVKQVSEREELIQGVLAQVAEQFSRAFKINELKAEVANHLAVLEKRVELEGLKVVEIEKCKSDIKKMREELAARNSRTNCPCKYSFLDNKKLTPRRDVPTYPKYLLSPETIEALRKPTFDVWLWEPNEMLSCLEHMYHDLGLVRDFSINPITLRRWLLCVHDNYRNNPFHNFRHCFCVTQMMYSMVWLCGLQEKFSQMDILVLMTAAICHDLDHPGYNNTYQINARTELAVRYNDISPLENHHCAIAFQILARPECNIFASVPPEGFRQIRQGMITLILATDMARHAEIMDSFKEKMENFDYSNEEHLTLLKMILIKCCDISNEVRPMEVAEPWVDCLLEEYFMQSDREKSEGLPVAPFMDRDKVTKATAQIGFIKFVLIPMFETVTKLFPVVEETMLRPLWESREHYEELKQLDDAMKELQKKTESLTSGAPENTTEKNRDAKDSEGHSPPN

T1 sequence (O76083 whole entry): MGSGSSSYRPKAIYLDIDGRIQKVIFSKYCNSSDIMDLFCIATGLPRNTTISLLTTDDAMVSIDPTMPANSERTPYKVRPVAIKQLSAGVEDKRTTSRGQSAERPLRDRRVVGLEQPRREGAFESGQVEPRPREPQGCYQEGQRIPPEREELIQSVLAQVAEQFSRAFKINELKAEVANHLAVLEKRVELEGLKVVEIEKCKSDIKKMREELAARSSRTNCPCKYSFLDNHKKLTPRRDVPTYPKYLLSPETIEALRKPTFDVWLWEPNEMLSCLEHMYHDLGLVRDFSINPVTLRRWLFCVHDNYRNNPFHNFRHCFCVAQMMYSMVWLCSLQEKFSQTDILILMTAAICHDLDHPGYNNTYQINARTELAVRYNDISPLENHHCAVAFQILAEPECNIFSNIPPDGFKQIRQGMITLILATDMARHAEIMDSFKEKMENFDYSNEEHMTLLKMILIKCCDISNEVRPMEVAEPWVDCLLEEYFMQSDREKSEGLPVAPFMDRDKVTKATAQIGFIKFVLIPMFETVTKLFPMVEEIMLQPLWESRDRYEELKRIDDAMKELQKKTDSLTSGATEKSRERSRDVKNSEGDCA
PDE4B, sequence (Q07343 212-736 limits assumed): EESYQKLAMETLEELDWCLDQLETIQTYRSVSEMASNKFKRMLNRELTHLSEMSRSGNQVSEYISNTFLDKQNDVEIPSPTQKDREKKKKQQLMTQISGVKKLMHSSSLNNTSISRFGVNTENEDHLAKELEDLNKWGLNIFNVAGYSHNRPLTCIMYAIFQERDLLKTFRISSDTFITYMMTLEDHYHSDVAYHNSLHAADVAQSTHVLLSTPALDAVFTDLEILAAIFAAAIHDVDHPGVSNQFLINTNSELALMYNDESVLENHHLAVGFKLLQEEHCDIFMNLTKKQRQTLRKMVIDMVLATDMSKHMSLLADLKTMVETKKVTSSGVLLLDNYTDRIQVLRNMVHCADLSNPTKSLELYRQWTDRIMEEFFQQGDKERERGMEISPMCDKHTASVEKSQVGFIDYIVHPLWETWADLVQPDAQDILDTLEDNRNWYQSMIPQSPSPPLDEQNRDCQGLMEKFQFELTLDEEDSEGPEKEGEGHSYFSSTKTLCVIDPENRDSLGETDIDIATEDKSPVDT
T5 sequence (O00408 whole entry): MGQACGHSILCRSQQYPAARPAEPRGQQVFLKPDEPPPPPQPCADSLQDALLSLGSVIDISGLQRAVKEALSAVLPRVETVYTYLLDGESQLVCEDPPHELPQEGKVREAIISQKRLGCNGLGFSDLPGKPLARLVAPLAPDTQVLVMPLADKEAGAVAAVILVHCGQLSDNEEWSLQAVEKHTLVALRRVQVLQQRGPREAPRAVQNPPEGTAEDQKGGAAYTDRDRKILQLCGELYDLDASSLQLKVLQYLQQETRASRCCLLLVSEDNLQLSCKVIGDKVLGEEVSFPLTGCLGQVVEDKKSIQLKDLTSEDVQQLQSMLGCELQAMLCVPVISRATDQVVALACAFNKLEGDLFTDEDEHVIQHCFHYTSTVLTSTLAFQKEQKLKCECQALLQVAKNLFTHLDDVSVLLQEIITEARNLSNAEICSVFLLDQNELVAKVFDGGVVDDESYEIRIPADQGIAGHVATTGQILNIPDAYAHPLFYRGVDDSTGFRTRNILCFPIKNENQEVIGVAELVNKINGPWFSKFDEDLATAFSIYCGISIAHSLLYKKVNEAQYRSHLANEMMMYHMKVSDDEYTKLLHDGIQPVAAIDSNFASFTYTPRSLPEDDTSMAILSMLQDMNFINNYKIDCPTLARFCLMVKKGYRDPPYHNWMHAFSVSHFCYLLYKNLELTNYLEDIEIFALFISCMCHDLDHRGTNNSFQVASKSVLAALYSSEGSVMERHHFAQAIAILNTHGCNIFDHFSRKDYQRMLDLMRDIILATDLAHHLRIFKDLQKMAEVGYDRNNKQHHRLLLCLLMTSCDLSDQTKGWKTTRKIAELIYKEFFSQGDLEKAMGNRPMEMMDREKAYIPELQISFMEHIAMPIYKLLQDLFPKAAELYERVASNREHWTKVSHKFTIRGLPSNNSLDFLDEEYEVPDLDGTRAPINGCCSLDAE
T7 sequence (O60658 117-829 limits assumed): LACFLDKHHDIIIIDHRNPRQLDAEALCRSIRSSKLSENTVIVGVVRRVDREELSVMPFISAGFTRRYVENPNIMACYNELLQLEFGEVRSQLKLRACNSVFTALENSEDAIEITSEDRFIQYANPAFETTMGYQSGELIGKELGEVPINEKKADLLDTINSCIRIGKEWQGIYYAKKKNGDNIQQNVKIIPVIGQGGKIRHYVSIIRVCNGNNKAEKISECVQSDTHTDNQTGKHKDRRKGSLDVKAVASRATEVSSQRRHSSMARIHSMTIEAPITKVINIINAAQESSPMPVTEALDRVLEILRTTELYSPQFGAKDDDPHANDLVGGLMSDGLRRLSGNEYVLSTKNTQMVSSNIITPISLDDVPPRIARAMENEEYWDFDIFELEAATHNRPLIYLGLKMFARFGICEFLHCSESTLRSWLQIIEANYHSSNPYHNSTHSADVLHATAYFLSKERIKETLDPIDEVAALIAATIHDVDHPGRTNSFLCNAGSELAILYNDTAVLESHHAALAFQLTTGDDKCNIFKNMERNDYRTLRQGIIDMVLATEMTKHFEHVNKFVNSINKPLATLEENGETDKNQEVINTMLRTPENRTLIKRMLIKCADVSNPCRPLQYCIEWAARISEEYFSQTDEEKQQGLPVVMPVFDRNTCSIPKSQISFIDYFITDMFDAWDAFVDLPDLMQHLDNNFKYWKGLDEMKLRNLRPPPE
T2 sequence (Q9Y233 1-779 isoform Q9Y233-1): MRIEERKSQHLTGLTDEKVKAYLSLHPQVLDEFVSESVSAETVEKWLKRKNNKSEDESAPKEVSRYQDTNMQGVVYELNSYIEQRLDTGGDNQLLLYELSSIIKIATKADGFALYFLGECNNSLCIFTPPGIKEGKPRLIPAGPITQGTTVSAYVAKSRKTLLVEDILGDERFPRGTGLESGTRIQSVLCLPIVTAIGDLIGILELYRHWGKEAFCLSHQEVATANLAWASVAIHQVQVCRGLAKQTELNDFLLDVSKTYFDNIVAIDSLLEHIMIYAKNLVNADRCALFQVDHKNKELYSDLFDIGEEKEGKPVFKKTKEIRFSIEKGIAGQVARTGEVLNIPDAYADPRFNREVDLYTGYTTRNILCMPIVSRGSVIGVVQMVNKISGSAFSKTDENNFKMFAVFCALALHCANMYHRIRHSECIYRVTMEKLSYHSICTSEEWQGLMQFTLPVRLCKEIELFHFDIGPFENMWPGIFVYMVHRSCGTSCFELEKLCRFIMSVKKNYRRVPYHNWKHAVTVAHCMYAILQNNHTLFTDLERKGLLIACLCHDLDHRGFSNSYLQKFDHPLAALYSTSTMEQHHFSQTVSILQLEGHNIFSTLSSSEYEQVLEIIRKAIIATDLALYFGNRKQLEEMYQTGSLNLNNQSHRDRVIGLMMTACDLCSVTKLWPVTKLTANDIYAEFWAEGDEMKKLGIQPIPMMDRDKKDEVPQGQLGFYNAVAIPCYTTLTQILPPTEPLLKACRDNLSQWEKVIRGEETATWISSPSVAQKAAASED
T8 sequence (Q13370 whole entry): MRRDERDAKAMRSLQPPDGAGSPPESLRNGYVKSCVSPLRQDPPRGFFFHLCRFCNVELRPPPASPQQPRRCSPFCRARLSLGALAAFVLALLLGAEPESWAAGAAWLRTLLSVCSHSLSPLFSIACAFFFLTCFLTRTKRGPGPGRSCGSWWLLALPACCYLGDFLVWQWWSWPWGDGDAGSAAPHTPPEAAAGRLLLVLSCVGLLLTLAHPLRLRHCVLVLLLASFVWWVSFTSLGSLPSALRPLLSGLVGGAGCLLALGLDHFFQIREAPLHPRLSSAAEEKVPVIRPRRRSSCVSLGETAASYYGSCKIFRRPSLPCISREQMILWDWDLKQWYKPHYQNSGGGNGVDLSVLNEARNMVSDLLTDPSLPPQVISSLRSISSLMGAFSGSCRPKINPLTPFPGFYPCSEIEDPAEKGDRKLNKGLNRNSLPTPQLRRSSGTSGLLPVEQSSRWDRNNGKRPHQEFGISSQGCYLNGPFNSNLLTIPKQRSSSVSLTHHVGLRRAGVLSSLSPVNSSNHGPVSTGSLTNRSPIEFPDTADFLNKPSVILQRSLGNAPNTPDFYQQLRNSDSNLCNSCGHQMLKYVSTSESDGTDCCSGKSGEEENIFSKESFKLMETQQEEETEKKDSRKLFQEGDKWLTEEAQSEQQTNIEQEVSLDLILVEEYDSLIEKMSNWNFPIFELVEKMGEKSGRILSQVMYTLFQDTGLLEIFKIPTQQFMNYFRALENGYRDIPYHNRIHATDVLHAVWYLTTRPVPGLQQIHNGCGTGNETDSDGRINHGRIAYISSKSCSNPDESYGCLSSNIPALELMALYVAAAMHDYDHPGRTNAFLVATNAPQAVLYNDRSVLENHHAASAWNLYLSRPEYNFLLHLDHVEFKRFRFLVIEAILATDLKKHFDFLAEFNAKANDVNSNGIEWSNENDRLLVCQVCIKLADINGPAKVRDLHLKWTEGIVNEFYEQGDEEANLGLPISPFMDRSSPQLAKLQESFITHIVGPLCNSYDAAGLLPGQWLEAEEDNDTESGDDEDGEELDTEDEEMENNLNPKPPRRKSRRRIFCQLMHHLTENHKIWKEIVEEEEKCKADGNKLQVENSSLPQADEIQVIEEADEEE

IC50 (PDE9A [2]) [nM] | SMILES | inhibition of isolated human PDE9A (PDE9A [1]) | also measured
87 | Cc1ccc(F)cc1Nc1nc(CC2CCCC2)[nH]c(=O)c1C#N [Example 23] | – | –
54 | Cc1c(F)cccc1Nc1nc(CC2CCCC2)[nH]c(=O)c1C#N [Example 7, 2-(Cyclopentylmethyl)-4-[(3-fluoro-2-methylphenyl)amino]-6-oxo-1,6-dihydro-5-pyrimidinecarbonitrile] | – | –
75 | CCC(C)Cc1nc(Nc2ccccc2C)c(C#N)c(=O)[nH]1 (stereo not drawn) [Example 14, 2-(2-Methylbutyl)-4-[(2-methylphenyl)amino]-6-oxo-1,6-dihydro-5-pyrimidinecarbonitrile] | – | –
75 | N#Cc1c(Nc2ccc(F)cc2)nc(CC2CCCC2)[nH]c1=O [Example 1, 2-(Cyclopentylmethyl)-4-[(fluorophenyl)amino]6-oxo-1,6-dihydro-5-pyrimidinecarbonitrile] | – | –

The next lines start with the compound.

SMILES | IC50 (PDE9A [2]) [nM] | inhibition of isolated human PDE9A (PDE9A [1]) | also measured
OCCN(CCO)c1nc(N2CCCCC2)c2nc(N(CCO)CCO)nc(N3CCCCC3)c2n1 [dipyridamole] | – | no inhibition | –
CCOC(=O)C1=C[C@]2(CC)CCCN3CCc4c(n1c1ccccc41)[C@@H]32 [vinpocetine] | – | no inhibition | –
CC(=O)Nc1ccc(-c2c[nH]c(=O)cn2)cc1 [SKF94120] | – | no inhibition | –
Cc1ccncc1Nc1nc(CC2CCCCC2)[nH]c(=O)c1C#N [Example 3, 2-(Cyclohexylmethyl)-4-[(4-methyl-3-pyridinyl)amino]-6-oxo-1,6-dihydro-5-pyrimidinecarbonitrile] | – | – | IC50 (PDE10A): > 4000 nM; IC50 (PDE7A): > 4000 nM; IC50 (PDE1C): > 4000 nM; IC50 (PDE2A): > 4000 nM; IC50 (PDE4B): > 4000 nM; IC50 (PDE5A): 1400 nM; IC50 (PDE8A): > 4000 nM; IC50 (PDE3B): > 4000 nM
CC(C)Cn1c(=O)n(C)c(=O)c2[nH]cnc21 [IBMX] | – | no inhibition | inhibition of murine PDE9A (Murine PDE9A): not inhibited
COc1ccc(C2CNC(=O)C2)cc1OC1CCCC1 (stereo not drawn) [rolipram] | – | no inhibition | –
